Data taken from patent US20170035793A1, “Use of P2X Purinergic Receptor Agonists to Enhance Insulin Secretion In Pancreatic Beta Cells” (priority 2010, published 2017).
“Also recorded” adds a separate entry of the source.

Experiments:
rat islets = assay: Insulin secretion from perifused rat islets; assay type: cell-based, rat (Lewis rat); settings: 1-1,000 μM
Text: (§1) Islet Isolation. Islets were isolated as previously described (57). Monkey islets were isolated from cynomolgus monkeys (Macacca fascicularis) >4 years of age at the time of pancreas procurement, as previously described (58). Pig pancreata were procured from the local slaughterhouse. Mice (C57BL/6) and rat (Lewis rat; Harlan) islets were isolated using a rodent-islet isolation technique (59). All animal protocols were approved by the University of Miami Care and Use Committee. Human pancreatic islets were obtained from the Human Islet Cell Processing Facility at the Diabetes Research Institute, University of Miami Miller School of Medicine or from the Islet Cell Resource basic science islet distribution program, Islet Cell Resource Centers (ICRs) Consortium, Division of Clinical Research, National Center for Research Resources, National Institutes of Health. Human islets were dissociated into single cells using enzyme-free cell dissociation buffer (Invitrogen). […]
(§2) Insulin and Glucagon Secretion. Insulin and glucagon secretion were measured as previously described (8, 36). […] Hormone release in the perifusate was determined with the human or mouse Endocrine LINCOplex Kit following manufacturer's instructions (Lincoresearch). […]

monkey islets [1] = assay: Insulin secretion from perifused monkey islets; assay type: cell-based, cynomolgus monkeys (Macacca fascicularis); settings: increasing ATP concentrations
Text: as §1, §2

human β cells = assay: [Ca2+]i imaging (Fura-2) of glucose-responsive human islet cells; assay type: cell-based; settings: ATPγS 50 μM
Text: (§3) Islet Isolation. Islets were isolated as previously described (57). Monkey islets were isolated from cynomolgus monkeys (Macacca fascicularis) >4 years of age at the time of pancreas procurement, as previously described (58). Pig pancreata were procured from the local slaughterhouse. Mice (C57BL/6) and rat (Lewis rat; Harlan) islets were isolated using a rodent-islet isolation technique (59). All animal protocols were approved by the University of Miami Care and Use Committee. Human pancreatic islets were obtained from the Human Islet Cell Processing Facility at the Diabetes Research Institute, University of Miami Miller School of Medicine or from the Islet Cell Resource basic science islet distribution program, Islet Cell Resource Centers (ICRs) Consortium, Division of Clinical Research, National Center for Research Resources, National Institutes of Health. Human islets were dissociated into single cells using enzyme-free cell dissociation buffer (Invitrogen). Islets and islets cells from Q:1 all species were cultured identically (37° C. and 5% CO2) inCMRL Q:2 medium-1066 (Invitrogen), niacinamide (10 mM; Sigma), ITS (BD Biosciences), Zn2SO4 (15 μM, Sigma), GlutaMAX (2 mM; Invitrogen), Hepes (25 mM; Sigma), FBS (10%; Invitrogen), and penicillinstreptomycin (100 IU/mL-100 μg/mL; Invitrogen).
[Ca^2+]i; Imaging. [Ca^2+]i imaging was performed as previously described (8, 36). Dispersed islet cells were immersed in Hepes-buffered solution (125 mMNaCl, 5.9 mMKCl, 2.56 mMCaCl2, 1 mMMgCl2, 25 mMHepes, and 0.1% BSA, pH7.4). Glucose was added to give a final concentration of 3 mM. Islets or dispersed islet cells were incubated in Fura-2 AM (2 μM; 1 h) and placed in a closed small volume imaging chamber (Warner Instruments). Stimuli were applied with the bathing solution. Islets loaded with Fura-2 were excited alternatively at 340 and 380 nm with a monochromator light source (Cairn Research Optoscan Monochromator; Cairn Research Ltd). Images were acquired with a Hamamatsu camera (Hamamatsu) attached to a Zeiss Axiovert 200 microscope (Carl Zeiss). Changes in the 340/380 fluorescence emission ratio over time were analyzed in individual islets and dispersed cells using Kinetic Imaging AQM Advance software (Kinetic Imaging). Peak changes in the fluorescence ratio constituted the response amplitude. Beta cells were distinguished from other endocrine cells by their [Ca^2+]i, responses to high glucose concentrations, and alpha cells were identified by their [Ca^2+]i responses to kainate (glutamate receptor agonist) (8, 36).

pig islets [2] = assay: Insulin secretion from perifused pig islets; assay type: cell-based; settings: 1-1,000 μM
Text: as §1, §2

pig islets [3] = assay: Glucagon secretion from perifused pig islets; assay type: cell-based
Text: as §1, §2

human islets [4] = assay: Dynamic insulin secretion from perifused human islets kept at constant glucose; assay type: cell-based
Text: as §3
(§4) Insulin and Glucagon Secretion. Insulin and glucagon secretion were measured as previously described (8, 36). A high-capacity automated perifusion system was developed to dynamically measure hormone secretion from pancreatic islets. A low pulsatility peristaltic pump pushed Hepes-buffered solution (125 mM NaCl, 5.9 mM KCl, 2.56 mM CaCl2, 1 mM MgCl2, 25 mM Hepes, and 0.1% BSA, pH 7.4 at a perifusion rate of 100 μL/min) through a column containing 100 pancreatic islets immobilized in Bio-Gel P-4 Gel (BioRad). Except when otherwise stated, glucose concentration was adjusted to 3 mM for all experiments. Stimuli were applied with the perifusion buffer. The perifusate was collected in an automatic fraction collector designed for a 96-well plate format. The columns containing the islets and the perifusion solutions were kept at 37° C., and the perifusate in the collecting plate was kept at <4° C. Perifusates were collected every 1 min. Hormone release in the perifusate was determined with the human or mouse Endocrine LINCOplex Kit following manufacturer's instructions (Lincoresearch). Human islet preparations varied considerably in their quality. Thus, the magnitudes of the responses to different stimuli were compared with the same recording or using recordings from the same preparation.

mouse islets [5] = assay: Glucagon secretion from perifused mouse islets; assay type: cell-based, Mice (C57BL/6)
Text: as §1, §2

monkey islets [6] = assay: Glucagon secretion from perifused monkey islets; assay type: cell-based, cynomolgus monkeys (Macacca fascicularis)
Text: as §1, §2

human P2X3 receptor = target: T1, human P2X3 receptor (Homo sapiens, UniProt P56373); settings: read-out: reported EC50 for the human P2X3 receptor; cited from earlier work
T1 sequence (P56373 1-397): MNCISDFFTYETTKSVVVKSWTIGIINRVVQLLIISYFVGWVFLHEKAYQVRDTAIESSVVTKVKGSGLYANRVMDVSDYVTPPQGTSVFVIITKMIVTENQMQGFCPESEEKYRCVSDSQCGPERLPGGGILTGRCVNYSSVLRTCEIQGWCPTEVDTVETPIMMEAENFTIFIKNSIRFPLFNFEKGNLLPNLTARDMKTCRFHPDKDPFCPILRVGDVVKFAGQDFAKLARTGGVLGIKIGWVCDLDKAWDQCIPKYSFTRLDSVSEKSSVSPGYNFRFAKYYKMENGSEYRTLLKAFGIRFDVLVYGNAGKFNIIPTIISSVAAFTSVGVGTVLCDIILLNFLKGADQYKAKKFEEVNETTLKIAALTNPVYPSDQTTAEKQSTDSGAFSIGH

human islets [7] = assay: Glucose-induced insulin secretion (glucose raised from 3 mM to 11 mM) in perifused human islets; assay type: cell-based; settings: glucose 3 mM to 11 mM, MRS2159 10 μM, Brilliant Blue G 1 μM, KN-62 1 μM, reactive blue 2 50 μM, MRS2179 10 μM, CGS15943 10 μM, adenosine 100 μM
Text: as §3, §4

human islets [8] = assay: ATP-induced (or α,β meATP-induced) insulin secretion in human islets with antagonists or blockers; assay type: cell-based; settings: nominal 0 Ca2+ (+1 mM EGTA), ATP 10 μM, α,β meATP 100 μM
Text: as §3, §4

human islets [9] = assay: Glucagon secretion from perifused human islets; assay type: cell-based
Text: as §1, §2

mouse islets [10] = assay: Insulin secretion from perifused mouse islets; assay type: cell-based, Mice (C57BL/6); settings: 1-1,000 μM
Text: as §1, §2

Nc1ncnc2c1ncn2[C@@H]1O[C@H](COP(=O)(O)OP(=O)(O)OP(=O)(O)O)[C@@H](O)[C@H]1O [ATP]
insulin response of rat islets (rat islets): No responses to ATP were observed; also recorded: neither ATP nor any of the other purinergic agonists tested stimulated insulin release; also recorded: only high concentrations of ATP (1 mM) induced small increases in insulin release | insulin response of monkey islets (monkey islets [1]): responded to increasing concentrations of ATP like human islets | [Ca2+]i response of β cells to the agonist (human β cells; human β cells identified by response to high glucose (11 or 16 mM), recorded at 3 mM glucose, BzATP 50 μM): elicited repeatable [Ca^2+]i responses; also recorded: elicited large insulin and [Ca^2+]i, responses | [Ca2+]i responses to the agonist in the nominal absence of extracellular Ca2+ (human β cells; human β cells, nominal 0 Ca2+ (+1 mM EGTA)): reduced [Ca^2+]i responses to ATP | insulin response of pig islets (pig islets [2]): No responses to ATP were observed; also recorded: neither ATP nor any of the other purinergic agonists tested stimulated insulin release | glucagon response of pig islets (pig islets [3]): difficult to discern | EC50 (human islets [4]; 3 mM and 11 mM glucose, read-out: high affinity component of the concentration response relationship for insulin release): ~500 nM | insulin secretory response to the agonist at low glucose (human islets [4]; 3 mM glucose, ATP 100 μM (or concentration series), ATPγS 50 μM, BzATP 50 μM, α,β-methylene ATP 50 μM, ADP 100 μM, UTP 100 μM, adenosine 100 μM): elicited insulin secretory responses; also recorded: stimulated increases in insulin release concentration dependently; also recorded: promoted strong responses; also recorded: elicited large insulin and [Ca^2+]i, responses | response to high glucose (11 mM) compared with the increase elicited by ATP (1 mM) (human islets [4]; ATP 1 mM response as reference): 101%±30 | insulin release on increasing extracellular ATP >1 mM (human islets [4]; ATP >1 mM): did not further raise insulin release | insulin responses to the agonist in islets kept at high glucose (human islets [4]; constant 11 mM glucose, ATP 100 μM, ATPγS 50 μM, BzATP 50 μM, UTP 100 μM, ADP 100 μM): stimulated increases in insulin release concentration dependently; also recorded: promoted strong responses | glucagon response of mouse islets (mouse islets [5]): difficult to discern; also recorded: stimulated small increases in glucagon secretion | glucagon response of monkey islets (monkey islets [6]): stimulated small increases in glucagon secretion | EC50 (human P2X3 receptor): ~390 nM | effect on glucose-induced insulin secretion (human islets [7]): did not add to the insulin response; also recorded: not effective during abrupt increases in glucose concentration | insulin responses to the agonist in the nominal absence of extracellular Ca2+ (human islets [8]): reduced; also recorded: strongly diminished | glucagon response of human islets (human islets [9]): stimulated small increases in glucagon secretion | insulin response of mouse islets (mouse islets [10]): No responses to ATP were observed; also recorded: neither ATP nor any of the other purinergic agonists tested stimulated insulin release
